Measurements taken from US6638916B1, “Use of sulfated oligosaccharides as inhibitors of cardiovascular disease” (The Australian National University, priority 1997, dated 2003).
Marks after values point to notes of the source that are not given here.

How the values were obtained:
[1] = tested on: saponin-induced vascular hyperplasia; experiment: Saponin-induced vascular hyperplasia model (carotid artery endothelial denudation); format: in vivo, rat; conditions: for effect on saponin-induced smooth muscle cell hyperplasia (histology, in words): rat carotid artery 14 days after saponin denudation, 35 mg/kg/day days 1 to 14 by miniosmotic pump, 35 mg/kg/day
Method: In order to induce vascular hyperplasia two procedures were used. In the first procedure, male Fisher 344 rats (18→30 weeks of age) were anaesthetised and approximately a 1 cm length of one of the carotid arteries exteriorised by dissection. The 1 cm arterial segment was clamped at both ends with padded artery clamps. A small volume of saponin solution (0.5 mg/ml in PBS) was injected, via a 30 gauge needle, into the arterial segment, left for 2 min and then withdrawn by suction. The 1 cm arterial section was ligated (5/0 silk) on each side of the needle hole and the arterial clamps removed, the artery reinteriorised and the wound sutured. On the following day animals were divided into control and treatment groups. The treatment group received the sulfated oligosaccharide, sulfated mannopentaose phosphate (PI-88) at a dose of 35 mg/kg/day for the next 14 days delivered via subcutaneously implanted miniosmotic pumps (Alzet 2ML2). Control animals were given the miniosmotic pumps containing saline. After 2 weeks the animals were anaesthetised (pentobarbitone), perfused with 10% buffered formalin for 20 minutes, euthanised (Pentobarbitone) and the denuded arterial segments were removed and processed for histological examination. The degree of intimal hyperplasia was determined using digital image analysis.
The saponin-induced vascular hyperplasia model used in this study is a new procedure which has several important features which should be highlighted. First, brief exposure to the detergent saponin is used to denude the arterial wall of endothelial cells. Such a procedure is similar to the endothelial denudation resulting from balloon angioplasty. Second, massive vascular smooth muscle hyperplasia is observed in the saponin-treated carotid artery 14 days after saponin exposure (FIG. 1) when compared with the carotid artery from an untreated control animal (FIG. 2). In fact, almost complete occlusion of the blood vessel is observed in the saponin-treated vessel (FIG. 1). Third, based on control experiments, the saponin-induced vascular hyperplasia model represents an excellent system for screening of drugs which inhibit vascular hyperplasia, a process which occurs in atherosclerotic plaques and in angioplasty-associated restenosis.

[2] = tested on: vascular intimal hyperplasia; experiment: Balloon dilation model of vascular intimal hyperplasia (carotid artery); format: in vivo, rat
Description: In the second procedure, a traditional balloon dilation model, based essentially on the method described by Clowes et al.^8 was used. Thirteen male Wistar rats (16-20 weeks of age) were anaesthetised (avertin) and the left common carotid artery exteriorised via a ventral midline incision. A padded vascular clamp was applied to the most caudal end of the exteriorised artery. Following arteriotomy a 2 F Fogarty balloon catheter was inserted into the carotid artery, the vascular clamp removed and the catheter advanced 1-1.5 cm in a caudal direction. The balloon was inflated using a 0.12 cc of air and the catheter was withdrawn to the point of arterial insertion. The balloon was then deflated and this procedure was repeated twice more. On the third withdrawal the balloon was deflated, the catheter removed from the artery and simultaneously a padded vascular clamp applied immediately caudal to the arteriotomy but leaving room for the subsequent application of a ligature (5/0 silk). […]
In the second procedure employing the balloon dilation model, the degree of vascular intimal hyperplasia was calculated as a percentage of the total area of the vessel cross-section. Specifically, the percentage of hyperplasia was determined to be the area of the tunica intima divided by the cross-sectional area of the artery.

With “sulfated mannopentaose phosphate [PI-88]” as the substance, how does the “Arterial Wall Thickness” value ([1]; male Fisher 344 rats, saponin denudation of carotid artery, 35 mg/kg/day for 14 days via subcutaneous miniosmotic pump, mean ± SEM, P = 0.08 vs control) read?
Its value is 266.7 ± 27.7^b μm.

What about the “Arterial Wall Thickness % Control” value ([1]; male Fisher 344 rats, saponin denudation, 35 mg/kg/day for 14 days via miniosmotic pump, saline control = 100, mean ± SEM, P = 0.08) of the same substance?
The value was 66.4 ± 6.9^b %.

What about the “effect on saponin-induced smooth muscle cell hyperplasia (histology, in words)” value [1] of the same substance?
Its value is “reduction in the saponin-induced vascular hyperplasia”.

And the “effect on saponin-induced smooth muscle cell hyperplasia (histology, in words)” value ([1]; listed as sulfated mannopentaose phosphate)?
Its value is “substantial reduction in smooth muscle cell hyperplasia”.

What about the “inhibition of vascular hyperplasia compared with untreated control animals” value ([1]; saponin model, 35 mg/kg/day via miniosmotic pumps, histological examination of carotid arteries, P=0.08) of the same substance?
The value was 34%.

And the “effect on vascular intimal hyperplasia (in words)” value ([2]; balloon dilation model, 35 mg/kg/day via miniosmotic pumps)?
Its value is “statistically significant (P=0.0008) reduction in vascular intimal hyperplasia”.

What about the Percentage of neointima ([2]; male Wistar rats, balloon catheter dilation of left common carotid artery, 35 mg/kg/day for two weeks via subcutaneous miniosmotic pump, area of tunica intima divided by cross-sectional area of artery, saline control 57.66) of the same substance?
The Percentage of neointima was 36.02^a %.
